“Also recorded” adds a separate entry of the source. Read-outs that look alike come from different tables or passages of the source.
Legend:
[1] = system: male, WT mice; details: dose not stated; cited from earlier work
[2] = system: C57Bl/6 wild-type mice; assay: Two-bottle choice alcohol paradigm (drinking in the dark, 10% ethanol vs water); type: in vivo, mouse; details: systemic (i.p.) injection; modified 2-bottle choice; male C57BL/6 mice; FIG. 1
[3] = system: C57Bl/6 wild-type mice; details: cited from earlier work; for alcohol consumption, in words (previous reports): dose not stated; for alcohol intake, in words (previous reports): 10 mg·kg^−1
[4] = target: T1, FLAG-mouse δOP (Mus musculus, UniProt P32300); assay: GloSensor cAMP inhibition assay in transfected HEK cells; type: cell-based; details: for cAMP α: efficacy normalized to positive control Leu-Enk; for IC50 / cAMP pIC50: inhibition of forskolin-induced cAMP
T1 construct: FLAG (N); expressed in transfected cells; host or cells: HEK cells (HEK-293), transient transfection together with pGloSensor22F

[5] = target: κOP (Homo sapiens, UniProt P41145); type: binding; design: membranes isolated; details: for Ki: read-out: Binding Ki
[6] = target: T2, δOP (Homo sapiens, UniProt P41143); type: binding; design: membranes isolated; details: [3H]DPDPE, CHO membranes; for Ki: read-out: Binding Ki
[7] = system: WT mice; details: 7-hydroxymitragynine dose not stated; paynantheine 10 mg·kg^−1; cited from earlier work
[8] = target: T3, HA-mouse μOP (Mus musculus, UniProt P42866); assay: GloSensor cAMP inhibition assay in transfected HEK cells; type: cell-based; details: for cAMP α: efficacy normalized to positive control DAMGO; for IC50 / cAMP pIC50: inhibition of forskolin-induced cAMP
T3 construct: HA (N); expressed in transfected cells; host or cells: HEK cells, transient transfection together with pGloSensor22F

[9] = target: T4, FLAG-mouse κOP (Mus musculus, UniProt P33534); type: cell-based; details: for IC50: read-out: cAMP IC50
T4 construct: FLAG (N); expressed in transfected cells; host or cells: HEK cells, transient transfection together with pGloSensor22F

[10] = target: T2, δOP; type: cell-based
[11] = target: T5, μOP (Homo sapiens, UniProt P35372); type: cell-based; details: normalized to positive control DAMGO
[12] = target: T5, μOP; type: binding; design: membranes isolated; details: [3H]DAMGO, CHO membranes
[13] = system: WT mice; assay: Locomotor evaluation; details: 10 mg·kg^−1
[14] = system: male, WT mice; assay: Conditioned place preference (brief and extended); details: 10 mg·kg^−1
[15] = system: wildtype mice; assay: Seizure assay (modified racine scale)
[16] = system: δOP KO mice; assay: Two-bottle choice alcohol paradigm in δOP KO mice; type: in vivo, mouse; details: 10 mg·kg^−1; male δOP KO mice
[17] = system: male mice; assay: Tail flick thermal nociception assay; type: in vivo, mouse
[18] = system: δOP KO mice; assay: Seizure assay in δOP KO mice; details: 30 mg·kg^−1 i.p.

κOP, sequence (P41145 whole entry): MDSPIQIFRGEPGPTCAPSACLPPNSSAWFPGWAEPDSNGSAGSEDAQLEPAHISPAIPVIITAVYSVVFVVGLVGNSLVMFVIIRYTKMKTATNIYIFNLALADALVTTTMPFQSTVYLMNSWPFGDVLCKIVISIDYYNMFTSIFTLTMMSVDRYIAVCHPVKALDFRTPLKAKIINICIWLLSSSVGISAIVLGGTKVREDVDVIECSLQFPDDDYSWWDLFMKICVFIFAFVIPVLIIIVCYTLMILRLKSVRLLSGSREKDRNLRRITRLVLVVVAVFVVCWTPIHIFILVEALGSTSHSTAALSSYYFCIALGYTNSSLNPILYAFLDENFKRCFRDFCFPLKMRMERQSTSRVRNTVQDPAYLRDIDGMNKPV
T5 sequence (P35372 whole entry): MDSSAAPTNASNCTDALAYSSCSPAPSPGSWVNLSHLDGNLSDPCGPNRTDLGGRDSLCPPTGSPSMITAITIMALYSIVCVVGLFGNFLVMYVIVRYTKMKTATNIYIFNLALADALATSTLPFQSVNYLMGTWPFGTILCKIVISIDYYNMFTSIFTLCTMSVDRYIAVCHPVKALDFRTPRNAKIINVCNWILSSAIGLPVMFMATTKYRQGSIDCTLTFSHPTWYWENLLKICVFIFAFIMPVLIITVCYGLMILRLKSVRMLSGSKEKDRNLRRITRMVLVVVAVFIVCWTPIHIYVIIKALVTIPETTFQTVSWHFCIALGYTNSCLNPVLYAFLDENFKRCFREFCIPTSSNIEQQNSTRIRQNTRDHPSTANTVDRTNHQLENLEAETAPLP
T1 sequence (P32300 whole entry): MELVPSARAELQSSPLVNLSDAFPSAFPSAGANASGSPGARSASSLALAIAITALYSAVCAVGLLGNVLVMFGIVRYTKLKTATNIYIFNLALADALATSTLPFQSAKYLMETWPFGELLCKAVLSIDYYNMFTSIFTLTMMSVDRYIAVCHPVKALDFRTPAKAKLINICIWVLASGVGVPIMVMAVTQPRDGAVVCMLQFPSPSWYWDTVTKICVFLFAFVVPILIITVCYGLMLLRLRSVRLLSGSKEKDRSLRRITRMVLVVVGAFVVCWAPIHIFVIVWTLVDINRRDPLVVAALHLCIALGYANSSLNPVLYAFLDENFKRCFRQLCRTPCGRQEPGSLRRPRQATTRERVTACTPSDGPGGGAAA
T4 sequence (P33534 whole entry): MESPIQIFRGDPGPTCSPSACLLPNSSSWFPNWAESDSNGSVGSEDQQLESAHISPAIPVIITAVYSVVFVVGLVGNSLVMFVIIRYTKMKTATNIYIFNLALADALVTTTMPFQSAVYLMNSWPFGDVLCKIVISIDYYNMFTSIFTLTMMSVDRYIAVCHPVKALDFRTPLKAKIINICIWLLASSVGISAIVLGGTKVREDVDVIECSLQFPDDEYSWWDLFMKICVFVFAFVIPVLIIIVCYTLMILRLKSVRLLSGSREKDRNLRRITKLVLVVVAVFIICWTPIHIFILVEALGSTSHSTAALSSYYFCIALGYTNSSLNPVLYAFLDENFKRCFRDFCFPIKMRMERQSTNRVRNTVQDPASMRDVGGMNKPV
T3 sequence (P42866 whole entry): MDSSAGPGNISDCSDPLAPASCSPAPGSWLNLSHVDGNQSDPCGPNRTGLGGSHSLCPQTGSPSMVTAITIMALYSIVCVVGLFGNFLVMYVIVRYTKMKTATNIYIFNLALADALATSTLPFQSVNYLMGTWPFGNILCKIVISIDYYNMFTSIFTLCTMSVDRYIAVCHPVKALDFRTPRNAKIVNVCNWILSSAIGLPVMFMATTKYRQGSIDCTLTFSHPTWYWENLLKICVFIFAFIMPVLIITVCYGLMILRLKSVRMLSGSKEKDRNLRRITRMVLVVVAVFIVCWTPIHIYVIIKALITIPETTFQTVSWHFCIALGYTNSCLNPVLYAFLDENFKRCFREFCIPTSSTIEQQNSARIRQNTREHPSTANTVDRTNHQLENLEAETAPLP
T2 sequence (P41143 whole entry): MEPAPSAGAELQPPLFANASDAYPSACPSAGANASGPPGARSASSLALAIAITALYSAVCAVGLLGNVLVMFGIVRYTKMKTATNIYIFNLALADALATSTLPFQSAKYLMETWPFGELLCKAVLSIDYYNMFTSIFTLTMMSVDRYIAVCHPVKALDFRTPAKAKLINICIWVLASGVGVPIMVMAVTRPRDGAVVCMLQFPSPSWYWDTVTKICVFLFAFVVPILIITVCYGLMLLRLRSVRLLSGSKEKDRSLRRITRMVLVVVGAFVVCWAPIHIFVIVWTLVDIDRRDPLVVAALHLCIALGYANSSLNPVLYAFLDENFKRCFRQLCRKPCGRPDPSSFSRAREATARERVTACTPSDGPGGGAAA

SMILES | alcohol intake, in words [2] | alcohol consumption, in words (previous reports) [3] | cAMP α [4] | IC50 [4] | cAMP pIC50 [4] | Binding pKi [5] | Ki [5] | Binding pKi [6] | Ki [6] | hyperlocomotion (previous reports) [7] | cAMP α [8] | IC50 [8] | cAMP pIC50 [8] | cAMP pIC50 [9] | cAMP α [9] | IC50 [9] | further results
CC[C@@H]1CN2CC[C@@]3(O)C(=Nc4cccc(OC)c43)[C@@H]2C[C@@H]1/C(=C\OC)C(=O)OC [7-OH MITRA, 7-hydroxymitragynine, reference compound] | reduce alcohol intake | decrease alcohol consumption | 80 ± 8 | 960 nM | *5.7 ± 0.2 (8) | 6.9 ± 0.1 (4) | 14 nM | 6.7 ± 0.1 (4) | 19 nM | caused both CPP and hyperlocomotion | 84 ± 3 | 16 nM | 7.8±0.1 | *6.2 ± 0.3 (9) | 77 ± 5 | 1040 nM | conditioned place preference (previous report) [1]: caused both CPP and hyperlocomotion; β-arrestin 2 pEC50 [10]: 6.4 ± 0.3 (6); β-arrestin 2 α ([10]; normalized to positive control Leu-Enk): 14 ± 1
C[C@@H](NC(=O)[C@@H](N)Cc1ccc(O)cc1)C(=O)NCC(=O)N(C)[C@@H](Cc1ccccc1)C(=O)NCCO [DAMGO, (2S)-2-[[2-[[(2R)-2-[[(2S)-2-Amino-3-(4-hydroxyphenyl)propanoyl]amino]propanoyl]amino]acetyl]-methylamino]-N-(2-hydroxyethyl)-3-phenylpropanamide, reference compound] | – | – | – | – | – | – | – | – | – | – | 100 | – | – | – | – | – | β-arrestin 2 α [11]: 100
C=C[C@H]1CN2CCc3c([nH]c4cccc(OC)c34)[C@@H]2C[C@@H]1/C(=C\OC)C(=O)OC [PAYN, paynantheine, reference compound] | reduce alcohol intake | decrease alcohol consumption | 64 ± 13 | 3550 nM | *5.6 ± 0.2 (4) | 5.5 ± 0.1 (5) | 4000 nM | 5.3 ± 0.1 (5) | 7820 nM | without causing hyperlocomotion | 100 ± 0 | 4080 nM | *5.4 ± 0.1 (5) | *5.3 ± 0.2 (4) | 95 ± 5 | 7430 nM | Binding pKi [12]: 6.3 ± 0.1 (4); Ki ([12]; read-out: Binding Ki): 52 nM; ambulation / locomotor activity [13]: a trend towards decreased locomotor activity; alcohol intake, in words (previous reports) ([3]; listed as Paynantheine): decrease alcohol intake; alcohol intake, in words (previous reports) ([3]; listed as paynantheine): significant reduction; conditioned place preference, brief paradigm [14]: induces conditioned place aversion (CPA); conditioned place preference, extended protocol ([14]; four conditioning sessions each for drug and vehicle): does not produce place preference; seizure activity ([15]; 10 mg·kg^−1): not showing overt signs of seizure activity; seizure activity ([15]; 30 mg·kg^−1): induced seizures; ethanol consumption in δOP KO mice, in words [16]: did not significantly decrease ethanol consumption; also recorded: alcohol consumption was not significantly altered; block of morphine analgesia (antagonist mode) ([17]; 10 mg·kg^−1, then morphine 6 mg·kg^−1 s.c. 10 minutes later): did not produce antinociception (paired, two-tailed t-test, t=0.6193, df=9, p=0.5511) or block morphine analgesia; antinociception (agonist mode) ([17]; 10 mg·kg^−1, 30 minutes after drug): did not produce antinociception; seizure activity in δOP KO mice [18]: still present in δOP KO mice
